In ChEMBL document CHEMBL1201862, “PubChem BioAssay data set” (2004):
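Cells were grown in 96-well plates and exposed to each compound for 48 hours at five concentrations; endpoints were interpolated linearly between bracketing concentrations, or set to the highest concentration if not reached. GI50: concentration for 50% inhibition of growth.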 Active and inactive are the calls of the source. Cut-off read from the data, not from the text of the source: active = GI50 up to about 1.1 µM and inactive = higher.

Legend:
Test in all cases: NCI-60 cell line screen, 48 h
[1] = test system: ACHN
[2] = test system: CCRF-CEM
[3] = test system: HOP-62
[4] = test system: KM12
[5] = test system: MOLT-4
[6] = test system: Malme-3M
[7] = test system: NCI-H23
[8] = test system: NCI-H460
[9] = test system: OVCAR-8
[10] = test system: RPMI-8226
[11] = test system: RXF 393
[12] = test system: SK-MEL-28
[13] = test system: SK-MEL-2
[14] = test system: SN12C
[15] = test system: SNB-75
[16] = test system: SW-620
[17] = test system: TK-10
[18] = test system: UACC-62
[19] = test system: UO-31
[20] = test system: OVCAR-5

Measured: GI50

Cc1csc(=S)n1OC(=O)NC1CCCCC1
inactive: [1] > 100 µM | [2] 9.57 µM | [3] > 100 µM | [4] > 80.9 µM | [5] 9.77 µM | [6] > 100 µM | [7] > 21.9 µM | [8] > 100 µM | [9] > 100 µM | [10] 23.6 µM | [11] > 100 µM | [12] > 34.6 µM | [13] 68.4 µM | [14] > 100 µM | [15] > 79.4 µM | [16] > 56.8 µM | [17] > 100 µM | [18] > 38.1 µM | [19] > 100 µM

COC1(OC)CC2C(=O)N(Cc3ccccc3)C1CC2S(=O)(=O)c1ccccc1 (configuration not stated)
inactive: [1] > 100 µM | [2] > 100 µM | [3] > 100 µM | [4] > 100 µM | [5] > 100 µM | [6] > 100 µM | [7] > 100 µM | [8] > 100 µM | [9] > 100 µM | [10] > 100 µM | [11] > 100 µM | [12] > 100 µM | [13] > 100 µM | [14] > 100 µM | [15] > 100 µM | [16] > 100 µM | [17] > 100 µM | [18] > 100 µM | [19] 62.1 µM

C[C@@H](Cl)[C@H]1CCCN(Cc2ccc(Br)cc2)C1
inactive: [1] > 12.5 µM | [2] > 12.5 µM | [3] > 12.5 µM | [4] > 12.5 µM | [5] > 12.5 µM | [6] > 12.5 µM | [7] > 12.5 µM | [8] > 12.5 µM | [20] > 12.5 µM | [9] > 12.5 µM | [10] > 12.5 µM | [11] > 12.5 µM | [12] > 12.5 µM | [13] > 12.5 µM | [15] > 12.5 µM | [16] > 12.5 µM | [17] > 12.5 µM | [18] > 12.5 µM | [19] > 12.5 µM

Cc1cc(S(=O)(=O)Nc2nc(N)nc(N3N=CCC3C)n2)c(S)cc1Cl (configuration not stated)
inactive: [1] > 10 µM | [2] > 10 µM | [3] > 10 µM | [4] > 10 µM | [5] > 10 µM | [6] > 10 µM | [7] > 10 µM | [8] > 10 µM | [20] > 10 µM | [9] > 10 µM | [10] > 10 µM | [11] > 10 µM | [12] > 10 µM | [13] > 10 µM | [14] > 10 µM | [15] > 10 µM | [16] > 10 µM | [17] > 10 µM | [19] > 10 µM

CCNC1C2(CCCCC2)NC(=O)C12CCCCC2 (configuration not stated)
inactive: [1] > 100 µM | [2] > 100 µM | [3] > 100 µM | [4] > 100 µM | [5] > 100 µM | [6] > 100 µM | [7] > 100 µM | [8] > 100 µM | [20] > 100 µM | [9] > 100 µM | [10] > 100 µM | [11] > 100 µM | [12] > 100 µM | [13] > 100 µM | [15] > 100 µM | [16] > 100 µM | [17] > 100 µM | [18] > 100 µM | [19] > 100 µM

CCOC(=O)C(Cc1c[nH]c2cc([N+](=O)[O-])ccc12)NS(=O)(=O)c1ccc2ccccc2c1 (configuration not stated)
inactive: [1] 23.6 µM | [2] 20.1 µM | [3] 15.7 µM | [4] 17.1 µM | [5] 26 µM | [6] > 10 µM | [7] 21.9 µM | [8] 18.1 µM | [9] 21.4 µM | [10] 22 µM | [11] 14.7 µM | [12] 18.2 µM | [13] 17.4 µM | [14] 18.7 µM | [15] 17.1 µM | [16] 21.2 µM | [17] 26.4 µM | [18] 16.7 µM | [19] 22.8 µM

CO/C(=N\N=C\c1ccc(OC)cc1OC)c1ccncc1
inactive: [1] > 10 µM | [2] > 10 µM | [3] > 10 µM | [4] > 10 µM | [5] > 10 µM | [6] > 10 µM | [7] > 10 µM | [8] > 10 µM | [20] > 10 µM | [9] > 10 µM | [10] > 10 µM | [11] > 10 µM | [12] > 10 µM | [13] > 10 µM | [14] > 10 µM | [15] > 10 µM | [16] > 10 µM | [17] > 10 µM | [19] > 10 µM

c1cn[nH]c1 [PYRAZOLE]
inactive: [1] > 10 µM | [2] > 10 µM | [3] > 10 µM | [4] > 10 µM | [5] > 10 µM | [6] > 10 µM | [7] > 10 µM | [8] > 10 µM | [9] > 10 µM | [10] > 10 µM | [11] > 10 µM | [12] > 10 µM | [13] > 10 µM | [14] > 10 µM | [15] > 10 µM | [16] > 10 µM | [17] > 10 µM | [18] > 10 µM | [19] > 10 µM
